Values joined by “and” are separate entries in the source; they are usually repeats but may differ in a detail not shown here. Equal entries are not always repeated. Inconclusive results and toxic doses are left out.
Test system: CD2F1 mice, L1210 leukemia ip, survival T/C
Experiment: NCI In Vivo Anticancer Drug Screen. Data for tumor model L1210 Leukemia (intraperitoneal) in CD2F1 (CDF1) mice
Details: higher = longer survival
How it was run: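 Mice carrying a transplanted tumor received test compound or vehicle alone. The value is the measurement in the treated group divided by that in the vehicle-treated control group.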

[1] = endpoint: mean survival time, dose: 100.0 mg/kg/injection, schedule: Q04DX003 (ip), vehicle: saline with Tween-80
[2] = endpoint: mean survival time, dose: 200.0 mg/kg/injection, schedule: Q04DX003 (ip), vehicle: saline with Tween-80
[3] = endpoint: mean survival time, dose: 400.0 mg/kg/injection, schedule: Q04DX003 (ip), vehicle: saline with Tween-80
[4] = endpoint: mean survival time, dose: 100.0 mg/kg/injection, schedule: Q01DX009 (ip), vehicle: saline with Tween-80
[5] = endpoint: mean survival time, dose: 100.0 mg/kg/injection, schedule: Q01DX001 (ip), vehicle: saline with Tween-80
[6] = endpoint: mean survival time, dose: 200.0 mg/kg/injection, schedule: Q01DX001 (ip), vehicle: saline with Tween-80
[7] = endpoint: mean survival time, dose: 400.0 mg/kg/injection, schedule: Q01DX001 (ip), vehicle: saline with Tween-80

CCC1(CC)COC(C)(C(=O)O)OC1
T/C (endpoint: mean survival time, dose: 100.0 mg/kg/injection, schedule: Q04DX003 (ip), vehicle: saline): 111 % of control | T/C (endpoint: mean survival time, dose: 200.0 mg/kg/injection, schedule: Q04DX003 (ip), vehicle: saline): 96 % of control | T/C (endpoint: mean survival time, dose: 400.0 mg/kg/injection, schedule: Q04DX003 (ip), vehicle: saline): 100 % of control

O=c1[nH]cnc2nc(C3OC(CO)C(O)C3O)[nH]c12 (configuration not stated)
T/C (endpoint: median survival time, dose: 4.5 mg/kg/injection, schedule: Q01DX005 (ip), vehicle: distilled water + Tween-80): 102 % of control | T/C (endpoint: median survival time, dose: 9.0 mg/kg/injection, schedule: Q01DX005 (ip), vehicle: distilled water + Tween-80): 106 % of control | T/C (endpoint: median survival time, dose: 18.0 mg/kg/injection, schedule: Q01DX005 (ip), vehicle: distilled water + Tween-80): 98 % of control | T/C (endpoint: median survival time, dose: 36.0 mg/kg/injection, schedule: Q01DX005 (ip), vehicle: distilled water + Tween-80): 100 % of control | T/C (endpoint: median survival time, dose: 72.0 mg/kg/injection, schedule: Q01DX005 (ip), vehicle: distilled water + Tween-80): 107 % of control

c1ccc(C[N+]23CCC(CC2)CC3)cc1
T/C (endpoint: mean survival time, dose: 6.25 mg/kg/injection, schedule: Q04DX003 (ip), vehicle: saline): 104 % of control | T/C (endpoint: mean survival time, dose: 12.5 mg/kg/injection, schedule: Q04DX003 (ip), vehicle: saline): 103 % of control

O=C1c2ccccc2C(=O)N1CNc1cccc(NCN2C(=O)c3ccccc3C2=O)c1
T/C (endpoint: mean survival time, dose: 100.0 mg/kg/injection, schedule: Q01DX009 (ip), vehicle: acetone): 98 % of control | T/C (endpoint: mean survival time, dose: 200.0 mg/kg/injection, schedule: Q01DX009 (ip), vehicle: acetone): 103 % of control | T/C (endpoint: mean survival time, dose: 400.0 mg/kg/injection, schedule: Q01DX009 (ip), vehicle: acetone): 93 % of control

NC(=S)N/N=C/c1ccc(C(F)(F)F)cn1
T/C (endpoint: mean survival time, dose: 12.5 mg/kg/injection, schedule: Q04DX002 (ip), vehicle: saline with Tween-80): 100 % of control and 102 % of control | T/C (endpoint: mean survival time, dose: 13.3 mg/kg/injection, schedule: Q01DX001 (ip), vehicle: saline with Tween-80): 96 % of control | T/C (endpoint: mean survival time, dose: 13.3 mg/kg/injection, schedule: Q01DX009 (ip), vehicle: Klucel (hydroxypropylcellulose) (HPC)): 100 % of control | T/C (endpoint: mean survival time, dose: 13.3 mg/kg/injection, schedule: Q01DX009 (ip), vehicle: saline with Tween-80): 122 % of control | T/C (endpoint: mean survival time, dose: 20.0 mg/kg/injection, schedule: Q01DX001 (ip), vehicle: saline with Tween-80): 100 % of control | T/C (endpoint: mean survival time, dose: 20.0 mg/kg/injection, schedule: Q01DX009 (ip), vehicle: Klucel (hydroxypropylcellulose) (HPC)): 96 % of control | T/C (endpoint: mean survival time, dose: 20.0 mg/kg/injection, schedule: Q01DX009 (ip), vehicle: saline with Tween-80): 171 % of control | T/C (endpoint: mean survival time, dose: 25.0 mg/kg/injection, schedule: Q04DX002 (ip), vehicle: saline with Tween-80): 105 % of control and 107 % of control | T/C (endpoint: mean survival time, dose: 30.0 mg/kg/injection, schedule: Q01DX001 (ip), vehicle: saline with Tween-80): 107 % of control | T/C (endpoint: mean survival time, dose: 30.0 mg/kg/injection, schedule: Q01DX009 (ip), vehicle: Klucel (hydroxypropylcellulose) (HPC)): 106 % of control | T/C (endpoint: mean survival time, dose: 45.0 mg/kg/injection, schedule: Q01DX001 (ip), vehicle: saline with Tween-80): 108 % of control | T/C (endpoint: mean survival time, dose: 45.0 mg/kg/injection, schedule: Q01DX009 (ip), vehicle: saline with Tween-80): 102 % of control | T/C (endpoint: mean survival time, dose: 50.0 mg/kg/injection, schedule: Q04DX002 (ip), vehicle: saline with Tween-80): 105 % of control | T/C (endpoint: mean survival time, dose: 67.5 mg/kg/injection, schedule: Q01DX001 (ip), vehicle: saline with Tween-80): 111 % of control

CSc1nc(=O)n(C2OC(CO)C(O)C2O)nc1SCc1ccccc1 (configuration not stated)
T/C (endpoint: mean survival time, dose: 12.5 mg/kg/injection, schedule: Q01DX005 (ip), vehicle: distilled water + Tween-80): 94 % of control | T/C (endpoint: mean survival time, dose: 25.0 mg/kg/injection, schedule: Q01DX005 (ip), vehicle: distilled water + Tween-80): 94 % of control | T/C (endpoint: mean survival time, dose: 50.0 mg/kg/injection, schedule: Q01DX005 (ip), vehicle: distilled water + Tween-80): 92 % of control

COC(=O)c1cn[nH]c1/N=N/N(C)C
T/C (endpoint: mean survival time, dose: 88.0 mg/kg/injection, schedule: Q01DX009 (ip), vehicle: other): 175 % of control | T/C (endpoint: mean survival time, dose: 133.0 mg/kg/injection, schedule: Q01DX009 (ip), vehicle: other): 164 % of control | T/C (endpoint: mean survival time, dose: 300.0 mg/kg/injection, schedule: Q01DX009 (ip), vehicle: other): 88 % of control

N#CC1(c2ccc(Cl)cc2)CCC1
T/C (endpoint: mean survival time, dose: 100.0 mg/kg/injection, schedule: Q01DX009 (ip), vehicle: saline sonified): 102 % of control | T/C [1]: 101 % of control | T/C (endpoint: mean survival time, dose: 200.0 mg/kg/injection, schedule: Q01DX009 (ip), vehicle: saline sonified): 92 % of control | T/C [2]: 101 % of control | T/C (endpoint: mean survival time, dose: 400.0 mg/kg/injection, schedule: Q01DX009 (ip), vehicle: saline sonified): 105 % of control | T/C [3]: 100 % of control

O=[N+]([O-])c1ccc(S(=O)(=O)O)cc1
T/C (endpoint: mean survival time, dose: 100.0 mg/kg/injection, schedule: Q01DX001 (ip), vehicle: saline): 95 % of control | T/C (endpoint: mean survival time, dose: 200.0 mg/kg/injection, schedule: Q01DX001 (ip), vehicle: saline): 105 % of control | T/C (endpoint: mean survival time, dose: 400.0 mg/kg/injection, schedule: Q01DX001 (ip), vehicle: saline): 100 % of control

Oc1ccc(/C=N\N=C\c2ccc(O)cc2)cc1
T/C [4]: 86 % of control | T/C [1]: 96 % of control | T/C (endpoint: mean survival time, dose: 200.0 mg/kg/injection, schedule: Q01DX009 (ip), vehicle: saline with Tween-80): 86 % of control | T/C [2]: 89 % of control | T/C (endpoint: mean survival time, dose: 400.0 mg/kg/injection, schedule: Q01DX009 (ip), vehicle: saline with Tween-80): 91 % of control | T/C [3]: 96 % of control

COc1cc(CC2c3cc(OC)c(OC)cc3CCN2C)c(Oc2cc3c(cc2OC)-c2c(OC)c(OC)c(OC)c4c2C(C3)N(C)CC4)cc1OC (configuration not stated)
T/C (endpoint: mean survival time, dose: 50.0 mg/kg/injection, schedule: Q01DX009 (ip), vehicle: saline with Tween-80): 95 % of control | T/C [4]: 86 % of control

NC(=O)N/N=C\c1ccco1
T/C [1]: 102 % of control

C=CCNc1ccc(OC)cc1
T/C [1]: 101 % of control | T/C [2]: 95 % of control

S=c1nn[nH]n1C1CCCCC1
T/C (endpoint: mean survival time, dose: 25.0 mg/kg/injection, schedule: Q04DX003 (ip), vehicle: saline with Tween-80): 96 % of control | T/C (endpoint: mean survival time, dose: 50.0 mg/kg/injection, schedule: Q04DX003 (ip), vehicle: saline with Tween-80): 98 % of control | T/C [1]: 92 % of control

O=[N+]([O-])c1ccc(C2C3C(c4ccccc4)=NCN32)cc1 (configuration not stated)
T/C [1]: 96 % of control | T/C [2]: 97 % of control | T/C [3]: 92 % of control

COc1ccc(OC)c(C(O)CCc2cccc(N)c2)c1 (configuration not stated)
T/C (endpoint: mean survival time, dose: 100.0 mg/kg/injection, schedule: Q04DX002 (ip), vehicle: Klucel (hydroxypropylcellulose) (HPC)): 93 % of control | T/C (endpoint: mean survival time, dose: 200.0 mg/kg/injection, schedule: Q04DX002 (ip), vehicle: Klucel (hydroxypropylcellulose) (HPC)): 93 % of control | T/C (endpoint: mean survival time, dose: 400.0 mg/kg/injection, schedule: Q04DX002 (ip), vehicle: Klucel (hydroxypropylcellulose) (HPC)): 97 % of control

COC1NC(=O)NC(=O)C1=[N+]=[N-] (configuration not stated)
T/C (endpoint: mean survival time, dose: 2.5 mg/kg/injection, schedule: Q01DX009 (ip), vehicle: saline with Tween-80): 113 % of control

C1=CC(c2ccccc2)C(c2ccccc2)C(c2ccccc2)=C1 (configuration not stated)
T/C [5]: 95 % of control | T/C [6]: 87 % of control | T/C [7]: 87 % of control

CS(C)(O)NC(N)=O
T/C (endpoint: median survival time, dose: 25.0 mg/kg/injection, schedule: Q01DX009 (ip), vehicle: water): 93 % of control | T/C (endpoint: median survival time, dose: 50.0 mg/kg/injection, schedule: Q01DX009 (ip), vehicle: water): 103 % of control | T/C (endpoint: median survival time, dose: 100.0 mg/kg/injection, schedule: Q01DX009 (ip), vehicle: water): 102 % of control | T/C (endpoint: median survival time, dose: 200.0 mg/kg/injection, schedule: Q01DX009 (ip), vehicle: water): 91 % of control | T/C (endpoint: median survival time, dose: 400.0 mg/kg/injection, schedule: Q01DX009 (ip), vehicle: water): 101 % of control

O=S(=O)(Nc1cc(Cl)c(NS(=O)(=O)c2ccccc2)cc1Cl)c1ccccc1
T/C [5]: 96 % of control | T/C [6]: 88 % of control | T/C [7]: 93 % of control

O=[N+]([O-])c1cccc(/C=C/C2(CCl)OCCO2)c1
T/C [5]: 101 % of control | T/C [6]: 116 % of control

COc1cc([N+](=O)[O-])ccc1C(=O)O
T/C (endpoint: mean survival time, dose: 100.0 mg/kg/injection, schedule: Q01DX001 (ip), vehicle: Klucel (hydroxypropylcellulose) (HPC)): 95 % of control | T/C (endpoint: mean survival time, dose: 200.0 mg/kg/injection, schedule: Q01DX001 (ip), vehicle: Klucel (hydroxypropylcellulose) (HPC)): 100 % of control | T/C (endpoint: mean survival time, dose: 400.0 mg/kg/injection, schedule: Q01DX001 (ip), vehicle: Klucel (hydroxypropylcellulose) (HPC)): 103 % of control

NC(CCl)=NCCc1ccsc1
T/C (endpoint: mean survival time, dose: 25.0 mg/kg/injection, schedule: Q04DX002 (ip), vehicle: saline): 95 % of control | T/C (endpoint: mean survival time, dose: 50.0 mg/kg/injection, schedule: Q04DX002 (ip), vehicle: saline): 106 % of control | T/C (endpoint: mean survival time, dose: 100.0 mg/kg/injection, schedule: Q04DX002 (ip), vehicle: saline): 98 % of control and 112 % of control

Source: PubChem BioAssay AID256 (DTP/NCI, 2004)
